Reference: US4081531A, “Antibiotic mimosamycin” (priority 1975, dated 1978)
≈ marks a conversion by molar mass, not a printed value.

System: Mycobacterium tuberculosis SMR
Experiment: Antimicrobial activity (MIC) against tubercle bacilli
Assay type: cell-based
Details: 672 h

Structure (SMILES): COC1=C(C)C(=O)c2cc(=O)n(C)cc2C1=O [mimosamycin]
- MIC: 1.56 µg/mL (≈ 6.69 µM)
